Laboratory results as given in PubChem BioAssay AID2458 (Broad Institute, 2010).
Inconclusive results are not listed.

Biological target: Luciferin 4-monooxygenase (Photinus pyralis) (UniProt P08659)
Experiment: Confirmatory luminescence dose response, luciferase translation or activity, H4 neuroglioma cells (AID 2458)

Sequence of Luciferin 4-monooxygenase (Photinus pyralis) (P08659 whole entry, looked up): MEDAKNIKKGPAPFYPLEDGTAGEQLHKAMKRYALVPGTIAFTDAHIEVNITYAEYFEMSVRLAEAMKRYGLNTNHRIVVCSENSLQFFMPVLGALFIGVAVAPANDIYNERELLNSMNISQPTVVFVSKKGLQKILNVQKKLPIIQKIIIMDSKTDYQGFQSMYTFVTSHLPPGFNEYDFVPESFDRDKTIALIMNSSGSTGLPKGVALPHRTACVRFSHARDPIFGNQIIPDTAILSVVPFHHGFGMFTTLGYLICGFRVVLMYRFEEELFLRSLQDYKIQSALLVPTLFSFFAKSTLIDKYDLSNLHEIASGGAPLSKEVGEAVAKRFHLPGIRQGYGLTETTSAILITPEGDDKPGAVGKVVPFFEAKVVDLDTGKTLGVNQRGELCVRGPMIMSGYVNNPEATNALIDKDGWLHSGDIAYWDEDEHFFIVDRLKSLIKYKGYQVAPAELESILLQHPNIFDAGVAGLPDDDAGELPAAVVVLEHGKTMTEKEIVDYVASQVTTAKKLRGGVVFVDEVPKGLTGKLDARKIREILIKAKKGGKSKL

`COc1ccc(O)c2c(=O)c3c(OC)cc4c(c3oc12)C1C=COC1O4` (stereo unspecified) gave an EC50 of 0.521 µM.
